Laboratory results taken from US20180042891A1, “Cancer Cell Apoptosis” (e-Therapeutics plc, priority 2009, published 2018).

Columns and labels:
Aspc-1 = system: Aspc-1; parameters: dose or concentration left out as unconfirmed; conditions: cited from earlier work
CDK2 = CDK2 (Homo sapiens, UniProt P24941); test: Direct assay against CDK2; format: biochemical; conditions: when directly assayed
[1] = CellTiter-Blue cell viability (cytotoxicity), whole panel of cell lines; format: cell-based; conditions: human; at the highest concentration; read-out: loss in cell viability
Experimental: (§1) Assay was performed at a 24 hour timepoint on 3 melanoma lines (A375, G-361, WM266-4) 2 breast cancer lines (MCF7, MDA-MB-231), fibroblast (46BR.1G1), colon cancer (HCT116), prostate cancer (PC-3), glioblastoma (U373) and non-small cell lung cancer (NSCLC) (DMS-114)
(§2) The above cell lines were maintained in RPMI 1640 culture medium (Sigma, UK) containing 10% (v/v) heat inactivated foetal bovine serum (Sigma, UK) and 2 mM […] at 37° C. in 5% humidified CO2. Cells were harvested, washed, re-suspended into growth medium and counted (Beckman-Coulter Vi-CELL XR). Cells were plated onto the middle 240 wells of 384 tissue culture plates at 1.6×lO^5 to 2.4×lO^5 cells/ml in 12.5 μl/well aliquots. 50 μl of growth media was aliquoted into the outer wells. 2 plates were prepared per cell line. Plates were incubated overnight at 37° C., in 5% humidified CO2.
(§3) Dexanabinol was prepared in growth medium at 2 times the final assay concentration at 125, 31.3, 7.81, 2.00, 0.49, 0.12, 0.031 and O.OO8 μM (DMSO concentration was kept constant across the dilution range at 0.5%).
(§4) The final assays concentrations were 10, 2.5, 0.63, 0.156, 0.039, 0.010, 0.002 and 0.0006 μg/ml. […] 12.5 μl of growth media was added to the media control wells. The plates were incubated for 24 hours at 37° C., in 5% humidified CO2.
(§5) The cell viability assay was performed in parallel on the same plate for each line using CellTiter-Blue® (Promega) reagent. Briefly, 25 μl of CellTiter-Blue® (Promega) reagent was added to each well. The plates were shaken for 1 minute at 500 rpm and then incubated at 37° C., 5% CO2 for 4 hours.

[2] = system: panel of cancer cell lines and a human fibroblast line; test: as above; format: cell-based
Experimental: as §1, §2, §3, §4, §5

[3] = system: melanoma cell lines (A375, Malme-3M, UACC62); conditions: previous studies, WO '700; read-out: decreased growth, IC50 value; cited from earlier work
[4] = system: panel of cancer cell lines and a human fibroblast line; test: Apo-ONE Caspase-3/7 apoptosis assay, whole panel of cell lines; format: cell-based
Experimental: as §1, §2, §3
Cisplatin was used as a positive control. […]
(§6) Caspase 3/7 levels were assessed by Apo-ONE® Homogeneous Caspase-3/7 assay kit. Fluorescence was measured using a FlexStation® II^384 plate reader at 1, 2, 3 and 4 hours after addition of the caspase substrate. The 4 hour readings were used for analysis.

Panc-1 cells = system: Panc-1 cells; parameters: dose or concentration left out as unconfirmed; conditions: at this same concentration; cited from earlier work
U373 glioblastoma cells = test: Caspase 3/7 apoptosis and CellTiter-Blue cell viability assay, 24 hour; format: cell-based; conditions: U373, 24 hours incubation
Experimental: as §1, §2, §3
(§7) Cisplatin was used as a positive control. The final assays concentrations were 10, 2.5, 0.63, 0.156, 0.039, 0.010, 0.002 and 0.0006 μg/ml. […] 12.5 μl of growth media was added to the media control wells. The plates were incubated for 24 hours at 37° C., in 5% humidified CO2.
as §6, §5

A375 melanoma cells = test: as above; format: cell-based; conditions: A375, 24 hours incubation
Experimental: as §1, §2, §3, §7, §6, §5

MCF7 breast cancer cells = test: as above; format: cell-based; conditions: MCF7, 24 hours incubation
Experimental: as §1, §2, §3, §7, §6, §5

DMS-114 NSCLC cells = test: as above; format: cell-based; conditions: DMS-114, 24 hours incubation
Experimental: as §1, §2, §3, §7, §6, §5

[5] = system: HCT116 colon cancer cells; test: as above; format: cell-based; conditions: HCT116, 24 hours incubation
Experimental: as §1, §2, §3, §7, §6, §5

CDK5 = CDK5 (Homo sapiens, UniProt Q00535); test: Direct assay against CDK5; format: biochemical; conditions: when directly assayed
Sequence of CDK5 (Q00535 whole entry, species assumed): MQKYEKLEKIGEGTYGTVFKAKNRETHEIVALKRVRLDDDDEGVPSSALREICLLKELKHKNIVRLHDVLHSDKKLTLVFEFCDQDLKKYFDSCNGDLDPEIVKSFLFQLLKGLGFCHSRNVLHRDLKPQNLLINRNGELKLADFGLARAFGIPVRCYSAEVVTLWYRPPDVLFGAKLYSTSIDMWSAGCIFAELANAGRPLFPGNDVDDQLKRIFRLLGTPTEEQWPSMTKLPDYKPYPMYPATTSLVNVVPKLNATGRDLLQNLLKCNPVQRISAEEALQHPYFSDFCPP
Sequence of CDK5 (Q15078 99-307 partner limits assumed, species assumed): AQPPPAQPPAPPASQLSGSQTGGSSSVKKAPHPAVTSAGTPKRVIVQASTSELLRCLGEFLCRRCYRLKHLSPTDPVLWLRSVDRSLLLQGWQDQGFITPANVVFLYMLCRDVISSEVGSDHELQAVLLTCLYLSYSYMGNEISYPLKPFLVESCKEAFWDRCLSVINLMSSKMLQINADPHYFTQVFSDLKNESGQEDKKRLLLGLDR

[6] = system: MDA-MB-231 breast cancer cells; test: Caspase 3/7 apoptosis and CellTiter-Blue cell viability assay, 24 hour; format: cell-based, human; conditions: MDA-MB-231, 24 hours incubation
Experimental: as §1, §2, §3, §7, §6, §5

G-361 melanoma cells = test: as above; format: cell-based, human; conditions: G-361, 24 hours incubation
Experimental: as §1, §2, §3, §7, §6, §5

WM266-4 melanoma cells = test: as above; format: cell-based, human; conditions: WM266-4, 24 hours incubation
Experimental: as §1, §2, §3, §7, §6, §5

[7] = system: PC-3 prostate cancer cells; test: as above; format: cell-based, human; conditions: PC-3, 24 hours incubation
Experimental: as §1, §2, §3, §7, §6, §5

[8] = system: 46Br.1G1 fibroblast cells; test: as above; format: cell-based, human; conditions: 46Br.1G1, 24 hours incubation
Experimental: as §1, §2, §3, §7, §6, §5

CCCCCCC(C)(C)c1cc(O)c2c(c1)OC(C)(C)[C@H]1CC=C(CO)C[C@H]21 [Dexanabinol, 1, 1 dimethyl heptyl-(3S,4S)-7-hydroxy-Δ^6-tetrahydrocannabinol]
Aspc-1 proliferation (Aspc-1): not affected
direct activity against CDK2 (CDK2): no significant direct activity
cytotoxicity at 24 h, 62.5 µM [1]: 100%
IC50 ([2]; Homo sapiens, Fibroblast, read-out: cytotoxic response, IC50 values): 10 to 25 µM
concentration giving dose-dependent decrease in cell viability ([2]; all cell lines): > 10^−5 M
IC50 [3]: 10 to 20 µM
concentrations at which pro-apoptotic effect and effect on cell number were shown [4]: ≥ 10 µM
concentration of peak response in apoptosis ([4]; dropped at the highest concentration of 10 μM): 2.5 µM
Panc-1 cells proliferation inhibited (Panc-1 cells): 26%
IC50 (U373 glioblastoma cells; Homo sapiens, U373 MG): 10 to 50 µM
Rank: apoptosis induction and decrease in proliferation (U373 glioblastoma cells): * (weak apoptosis induction and decrease in proliferation (<35%))
Rank: apoptosis induction and decrease in proliferation (A375 melanoma cells): ** (moderate apoptosis induction and decrease in proliferation (35-70%))
IC50 (A375 melanoma cells; Homo sapiens, A-375): 19.2 µM
IC50 (MCF7 breast cancer cells; Homo sapiens): 16.2 µM
Rank: apoptosis induction and decrease in proliferation (MCF7 breast cancer cells): *** (good apoptosis induction and decrease in proliferation (>70%))
Rank: apoptosis induction and decrease in proliferation (DMS-114 NSCLC cells): * (weak apoptosis induction and decrease in proliferation (<35%))
IC50 (DMS-114 NSCLC cells; Homo sapiens): 10 to 50 µM
Rank: apoptosis induction and decrease in proliferation [5]: *** (good apoptosis induction and decrease in proliferation (>70%))
IC50 ([5]; Homo sapiens, HCT-116): 22.3 µM
direct activity against CDK5 (CDK5): no significant direct activity
IC50 ([6]; Homo sapiens): 10 to 50 µM
Rank: apoptosis induction and decrease in proliferation [6]: ** (moderate apoptosis induction and decrease in proliferation (35-70%))
Rank: apoptosis induction and decrease in proliferation (G-361 melanoma cells): *** (good apoptosis induction and decrease in proliferation (>70%))
IC50 (G-361 melanoma cells; Homo sapiens): 11 µM
IC50 (WM266-4 melanoma cells; Homo sapiens, WM 266-4): 20.9 µM
Rank: apoptosis induction and decrease in proliferation (WM266-4 melanoma cells): ** (moderate apoptosis induction and decrease in proliferation (35-70%))
IC50 ([7]; Homo sapiens): 19.9 µM
Rank: apoptosis induction and decrease in proliferation [7]: *** (good apoptosis induction and decrease in proliferation (>70%))
Rank: apoptosis induction and decrease in proliferation [8]: *** (good apoptosis induction and decrease in proliferation (>70%))
IC50 ([8]; Homo sapiens, Fibroblast): 23.1 µM

N.N.[Cl][Pt][Cl] [Cisplatin, reference compound]
IC50 (U373 glioblastoma cells): > 33 µM
Rank: apoptosis induction and decrease in proliferation (U373 glioblastoma cells): * (weak apoptosis induction and decrease in proliferation (<35%))
IC50 (A375 melanoma cells): 21.8 µM
Rank: apoptosis induction and decrease in proliferation (A375 melanoma cells): ** (moderate apoptosis induction and decrease in proliferation (35-70%))
IC50 (MCF7 breast cancer cells): 40.6 µM
Rank: apoptosis induction and decrease in proliferation (MCF7 breast cancer cells): ** (moderate apoptosis induction and decrease in proliferation (35-70%))
IC50 (DMS-114 NSCLC cells): ~40.2 µM
Rank: apoptosis induction and decrease in proliferation (DMS-114 NSCLC cells): * (weak apoptosis induction and decrease in proliferation (<35%))
IC50 [5]: 29.5 µM
Rank: apoptosis induction and decrease in proliferation [5]: ** (moderate apoptosis induction and decrease in proliferation (35-70%))
IC50 [6]: > 33 µM
Rank: apoptosis induction and decrease in proliferation [6]: * (weak apoptosis induction and decrease in proliferation (<35%))
IC50 (G-361 melanoma cells): 18 µM
Rank: apoptosis induction and decrease in proliferation (G-361 melanoma cells): ** (moderate apoptosis induction and decrease in proliferation (35-70%))
IC50 (WM266-4 melanoma cells): 62 µM
Rank: apoptosis induction and decrease in proliferation (WM266-4 melanoma cells): * (weak apoptosis induction and decrease in proliferation (<35%))
IC50 [7]: ~58 µM
Rank: apoptosis induction and decrease in proliferation [7]: * (weak apoptosis induction and decrease in proliferation (<35%))
IC50 [8]: 21.5 µM
Rank: apoptosis induction and decrease in proliferation [8]: ** (moderate apoptosis induction and decrease in proliferation (35-70%))
